Assay results: PMC4581874 (PLoS ONE, 2015)

Key:
FGFR3 = molecular target: T1, FGFR3 (Homo sapiens, UniProt P22607); assay: In vitro kinase assay, FGFR3; assay type: biochemical
T1 construct: purchased Millipore UK Ltd., Dundee, UK (now Eurofins Scientific); KinaseProfiler / IC50 Profiler service
Procedure: (§1) All kinase assays were carried out using KinaseProfiler^TM and IC50 Profiler^TM (Millipore UK Ltd., Dundee, UK. Now Eurofins Scientific, Dundee, UK). All IC50 data were presented as the mean values. The Curves obtained to determine IC50 values were shown in Supporting Information (S1 Fig).

PKCδ (h) = molecular target: T2, PKCδ (h) (Homo sapiens, UniProt Q05655); assay: Kinase profile, PKCδ; assay type: biochemical; settings: mean ± S.D.
T2 construct: purchased Millipore (now Eurofins) KinaseProfiler / IC50 Profiler
Procedure: as §1

HUVECs = assay: VEGF-induced scratch wound migration assay; assay type: cell-based, human; settings: VEGF 50 ng/mL, compound 0.5 μg/mL, 8 hours
Procedure: For the cell proliferation assays, cells were incubated overnight in endothelial basal media (EBM; Lonza, Walkersville, MD, USA) containing 0.5% FBS or supplemented with VEGF-A and/or VEGF inhibitors. The cells were washed with PBS and counted in 4 random microscope fields. The tube formation assay was performed by seeding cells on Matrigel-coated plates (BD Bioscience, Bedford, MA, USA) and incubating in EBM containing 0.5% FBS or supplemented with VEGF-A and/or VEGF inhibitors. After overnight incubation, tubule networks were quantified by measuring the tubule length in 4 random microscope fields. For the analysis of scratch wound migration, confluent cell monolayers grown on 6-well plates were scratched using a micropipette tip. After the plates were washed with PBS to remove dislodged cells and media, they were incubated with EBM containing 0.5% FBS or supplemented with VEGF and/or VEGF inhibitors for 8 hours. Cell migration was observed by optical microscopy and quantified by measuring the number of cells that had migrated from the wound edges.

CaMKIIβ (h) = molecular target: T3, CaMKIIβ (h) (Homo sapiens, UniProt Q13554); assay: Kinase profile, CaMKIIβ; assay type: biochemical; settings: mean ± S.D.
T3 construct: purchased Millipore (now Eurofins) KinaseProfiler / IC50 Profiler
Procedure: as §1

CDK5/p35 (h) = molecular target: T4, CDK5/p35 (h) (Homo sapiens, UniProt Q00535); assay: Kinase profile, CDK5/p35; assay type: biochemical; settings: mean ± S.D.
T4 construct: purchased Millipore (now Eurofins) KinaseProfiler / IC50 Profiler
Procedure: as §1

phosphorylated EGFR = assay: Western blot of EGFR phosphorylation in HCC827 cells; assay type: cell-based; settings: 3 h
Procedure: Fig 3 MKP101 inhibits proliferation of epidermal growth factor receptor (EGFR)-tyrosine kinase inhibitor (TKI)-sensitive non-small cell lung cancer (NSCLC) cells. (A) Inhibition of HCC827 cell proliferation. Cells were incubated for 72 h with a range of concentrations of MKP101, and cell viability was measured using the WST-1 assay. […] (B) Inhibition of EGFR phosphorylation in HCC827 cells. Western blot analysis using antibodies to phosphorylated and total EGFR from a representative experiment is shown. Cells were incubated for 3 h at the indicated concentration. (C) Graph showing the relative intensities of the total and phosphorylated EGFR as determined by band densitometry. IC50, half-maximal inhibitory concentration.

CaMKIIγ (h) = molecular target: T5, CaMKIIγ (h) (Homo sapiens, UniProt Q13555); assay: Kinase profile, CaMKIIγ; assay type: biochemical; settings: mean ± S.D.
T5 construct: purchased Millipore (now Eurofins) KinaseProfiler / IC50 Profiler
Procedure: as §1

p70S6K (h) = molecular target: T6, p70S6K (h) (Homo sapiens, UniProt P23443); assay: Kinase profile, p70S6K; assay type: biochemical; settings: mean ± S.D.
T6 construct: purchased Millipore (now Eurofins) KinaseProfiler / IC50 Profiler
Procedure: as §1

PKCμ (h) = molecular target: T7, PKCμ (h) (Homo sapiens, UniProt Q15139); assay: Kinase profile, PKCμ; assay type: biochemical; settings: mean ± S.D.
T7 construct: purchased Millipore (now Eurofins) KinaseProfiler / IC50 Profiler
T7 sequence (Q15139 whole entry): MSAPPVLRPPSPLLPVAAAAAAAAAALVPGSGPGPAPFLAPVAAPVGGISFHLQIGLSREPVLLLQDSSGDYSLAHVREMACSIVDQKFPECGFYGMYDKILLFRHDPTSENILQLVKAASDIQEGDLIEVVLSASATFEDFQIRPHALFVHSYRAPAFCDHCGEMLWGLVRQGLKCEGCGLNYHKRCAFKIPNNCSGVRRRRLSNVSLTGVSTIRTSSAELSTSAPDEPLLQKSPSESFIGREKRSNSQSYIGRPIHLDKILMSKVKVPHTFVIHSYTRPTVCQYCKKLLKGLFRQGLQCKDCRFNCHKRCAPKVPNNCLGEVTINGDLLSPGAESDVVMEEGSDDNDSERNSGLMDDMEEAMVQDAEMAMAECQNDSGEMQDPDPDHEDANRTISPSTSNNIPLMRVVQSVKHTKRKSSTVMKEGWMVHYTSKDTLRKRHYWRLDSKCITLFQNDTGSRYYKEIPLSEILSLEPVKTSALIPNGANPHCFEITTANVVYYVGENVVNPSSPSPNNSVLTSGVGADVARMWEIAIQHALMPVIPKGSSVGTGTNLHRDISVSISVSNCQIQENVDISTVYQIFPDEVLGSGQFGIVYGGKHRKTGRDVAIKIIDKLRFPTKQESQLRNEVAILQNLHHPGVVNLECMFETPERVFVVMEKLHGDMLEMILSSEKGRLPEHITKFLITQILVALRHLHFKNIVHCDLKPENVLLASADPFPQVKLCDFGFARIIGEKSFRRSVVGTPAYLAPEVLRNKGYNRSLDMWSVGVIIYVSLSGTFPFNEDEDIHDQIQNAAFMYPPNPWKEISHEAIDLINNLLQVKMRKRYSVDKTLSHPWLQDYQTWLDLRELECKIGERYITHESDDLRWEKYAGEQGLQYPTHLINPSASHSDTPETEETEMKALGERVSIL
Procedure: as §1

Abl (h) = molecular target: T8, Abl (h) (Homo sapiens, UniProt P00519); assay: Kinase profile, Abl; assay type: biochemical; settings: mean ± S.D.
T8 construct: purchased Millipore (now Eurofins) KinaseProfiler / IC50 Profiler
Procedure: as §1

CaMKIIδ (h) = molecular target: T9, CaMKIIδ (h) (Homo sapiens, UniProt Q13557); assay: Kinase profile, CaMKIIδ; assay type: biochemical; settings: mean ± S.D.
T9 construct: purchased Millipore (now Eurofins) KinaseProfiler / IC50 Profiler
Procedure: as §1

MAPK2 (h) = molecular target: T10, MAPK2 (h) (Homo sapiens, UniProt P28482); assay: Kinase profile, MAPK2; assay type: biochemical; settings: mean ± S.D.
T10 construct: purchased Millipore (now Eurofins) KinaseProfiler / IC50 Profiler
T10 sequence (P28482 whole entry): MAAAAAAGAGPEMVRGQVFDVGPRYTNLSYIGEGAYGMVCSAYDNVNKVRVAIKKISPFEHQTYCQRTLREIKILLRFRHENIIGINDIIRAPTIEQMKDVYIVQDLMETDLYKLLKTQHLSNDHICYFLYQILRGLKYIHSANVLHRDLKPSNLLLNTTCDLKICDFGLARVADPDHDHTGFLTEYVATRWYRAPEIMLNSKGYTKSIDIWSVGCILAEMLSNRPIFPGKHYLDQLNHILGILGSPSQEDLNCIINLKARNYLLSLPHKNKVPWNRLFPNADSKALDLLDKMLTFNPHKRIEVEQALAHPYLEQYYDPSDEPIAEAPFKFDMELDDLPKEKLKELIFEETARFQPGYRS
Procedure: as §1

PKCι (h) = molecular target: T11, PKCι (h) (Homo sapiens, UniProt P41743); assay: Kinase profile, PKCι; assay type: biochemical; settings: mean ± S.D.
T11 construct: purchased Millipore (now Eurofins) KinaseProfiler / IC50 Profiler
Procedure: as §1

Lyn (h) = molecular target: T12, Lyn (h) (Homo sapiens, UniProt P07948); assay: Kinase profile, Lyn; assay type: biochemical; settings: mean ± S.D.
T12 construct: purchased Millipore (now Eurofins) KinaseProfiler / IC50 Profiler
Procedure: as §1

CDK2/cyclin A (h) = molecular target: T13, CDK2/cyclin A (h) (Homo sapiens, UniProt P24941); assay: Kinase profile, CDK2/cyclin A; assay type: biochemical; settings: mean ± S.D.
T13 construct: purchased Millipore (now Eurofins) KinaseProfiler / IC50 Profiler
Procedure: as §1

GSK3β (h) = molecular target: T14, GSK3β (h) (Homo sapiens, UniProt P49841); assay: Kinase profile, GSK3β; assay type: biochemical; settings: mean ± S.D.
T14 construct: purchased Millipore (now Eurofins) KinaseProfiler / IC50 Profiler
T14 sequence (P49841 whole entry): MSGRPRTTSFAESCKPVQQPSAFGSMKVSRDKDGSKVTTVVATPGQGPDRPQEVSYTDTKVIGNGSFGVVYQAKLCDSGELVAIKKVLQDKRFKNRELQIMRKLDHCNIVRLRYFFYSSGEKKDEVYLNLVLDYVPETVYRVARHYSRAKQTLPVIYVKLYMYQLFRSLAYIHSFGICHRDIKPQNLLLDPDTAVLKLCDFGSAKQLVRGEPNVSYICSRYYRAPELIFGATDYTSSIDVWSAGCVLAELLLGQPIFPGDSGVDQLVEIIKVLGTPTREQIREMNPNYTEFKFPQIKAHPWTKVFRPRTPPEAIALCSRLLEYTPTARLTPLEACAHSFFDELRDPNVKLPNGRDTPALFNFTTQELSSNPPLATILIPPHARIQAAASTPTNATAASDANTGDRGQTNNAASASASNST
Procedure: as §1

FLT3 (h) = molecular target: T15, FLT3 (h) (Homo sapiens, UniProt P36888); assay: Kinase profile, FLT3; assay type: biochemical; settings: mean ± S.D.
T15 construct: purchased Millipore (now Eurofins) KinaseProfiler / IC50 Profiler
Procedure: as §1

PKCζ (h) = molecular target: T16, PKCζ (h) (Homo sapiens, UniProt Q05513); assay: Kinase profile, PKCζ; assay type: biochemical; settings: mean ± S.D.
T16 construct: purchased Millipore (now Eurofins) KinaseProfiler / IC50 Profiler
T16 sequence (Q05513 whole entry): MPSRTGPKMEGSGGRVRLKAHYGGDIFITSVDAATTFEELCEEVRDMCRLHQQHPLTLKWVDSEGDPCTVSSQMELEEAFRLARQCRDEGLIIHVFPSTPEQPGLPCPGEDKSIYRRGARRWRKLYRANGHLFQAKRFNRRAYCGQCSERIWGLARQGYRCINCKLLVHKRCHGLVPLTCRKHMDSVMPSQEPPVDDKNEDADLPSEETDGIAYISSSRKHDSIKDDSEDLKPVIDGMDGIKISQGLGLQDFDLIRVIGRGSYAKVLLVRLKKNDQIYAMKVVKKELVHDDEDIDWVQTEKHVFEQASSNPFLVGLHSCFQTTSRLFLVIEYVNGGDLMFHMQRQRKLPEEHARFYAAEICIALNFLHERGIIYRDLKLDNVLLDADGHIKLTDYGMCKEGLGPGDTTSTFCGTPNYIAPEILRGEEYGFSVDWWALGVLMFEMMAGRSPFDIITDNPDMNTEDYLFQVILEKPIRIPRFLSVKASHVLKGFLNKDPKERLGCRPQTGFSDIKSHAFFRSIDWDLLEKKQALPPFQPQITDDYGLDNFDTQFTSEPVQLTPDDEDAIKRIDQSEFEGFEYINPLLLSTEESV
Procedure: as §1

EGFR = EGFR (Homo sapiens, UniProt P00533); assay: In vitro kinase assay, EGFR; assay type: biochemical
Sequence of EGFR (P00533 25-1210): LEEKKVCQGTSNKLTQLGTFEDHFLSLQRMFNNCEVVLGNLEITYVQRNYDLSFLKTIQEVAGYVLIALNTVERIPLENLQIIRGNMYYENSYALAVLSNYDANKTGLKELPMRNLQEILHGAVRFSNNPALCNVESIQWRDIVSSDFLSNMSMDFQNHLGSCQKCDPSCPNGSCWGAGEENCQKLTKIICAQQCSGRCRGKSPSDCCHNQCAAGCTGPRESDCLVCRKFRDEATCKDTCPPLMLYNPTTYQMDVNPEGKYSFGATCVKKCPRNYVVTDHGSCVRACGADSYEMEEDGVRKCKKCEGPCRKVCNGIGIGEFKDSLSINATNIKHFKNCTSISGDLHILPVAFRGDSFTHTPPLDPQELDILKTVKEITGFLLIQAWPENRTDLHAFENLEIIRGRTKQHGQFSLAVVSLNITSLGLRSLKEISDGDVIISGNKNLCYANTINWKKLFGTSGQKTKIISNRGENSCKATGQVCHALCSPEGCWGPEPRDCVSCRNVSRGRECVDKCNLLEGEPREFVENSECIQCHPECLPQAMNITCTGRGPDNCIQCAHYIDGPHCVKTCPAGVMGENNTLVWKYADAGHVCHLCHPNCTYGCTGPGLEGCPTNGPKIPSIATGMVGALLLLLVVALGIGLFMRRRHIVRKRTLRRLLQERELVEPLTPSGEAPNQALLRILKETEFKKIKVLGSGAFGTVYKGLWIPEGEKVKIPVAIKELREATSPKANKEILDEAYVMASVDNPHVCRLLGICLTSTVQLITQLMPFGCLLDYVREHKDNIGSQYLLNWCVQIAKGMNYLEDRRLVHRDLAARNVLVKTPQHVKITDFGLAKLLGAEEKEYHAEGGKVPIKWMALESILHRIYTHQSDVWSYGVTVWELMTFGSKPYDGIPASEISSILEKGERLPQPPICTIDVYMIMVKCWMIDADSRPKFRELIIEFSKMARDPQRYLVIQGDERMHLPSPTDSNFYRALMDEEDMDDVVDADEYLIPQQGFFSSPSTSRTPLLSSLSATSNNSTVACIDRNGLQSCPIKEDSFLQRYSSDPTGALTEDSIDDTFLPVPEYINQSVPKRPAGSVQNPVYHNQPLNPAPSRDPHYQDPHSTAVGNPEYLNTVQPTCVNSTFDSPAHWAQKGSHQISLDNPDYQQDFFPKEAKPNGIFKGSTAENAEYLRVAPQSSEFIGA
Procedure: All kinase assays were carried out using KinaseProfiler^TM and IC50 Profiler^TM (Millipore UK Ltd., Dundee, UK. Now Eurofins Scientific, Dundee, UK). All IC50 data were presented as the mean values.

PKCη (h) = molecular target: T17, PKCη (h) (Homo sapiens, UniProt P24723); assay: Kinase profile, PKCη; assay type: biochemical; settings: mean ± S.D.
T17 construct: purchased Millipore (now Eurofins) KinaseProfiler / IC50 Profiler
Procedure: as §1

ROCK-II (h) = molecular target: T18, ROCK-II (h) (Homo sapiens, UniProt O75116); assay: Kinase profile, ROCK-II; assay type: biochemical; settings: mean ± S.D.
T18 construct: purchased Millipore (now Eurofins) KinaseProfiler / IC50 Profiler
Procedure: as §1

MAPK1 (h) = molecular target: T19, MAPK1 (h) (Homo sapiens, UniProt P27361); assay: Kinase profile, MAPK1; assay type: biochemical; settings: mean ± S.D.
T19 construct: purchased Millipore (now Eurofins) KinaseProfiler / IC50 Profiler
Procedure: as §1

CDK2/cyclin E (h) = molecular target: T20, CDK2/cyclin E (h) (Homo sapiens, UniProt P24941); assay: Kinase profile, CDK2/cyclin E; assay type: biochemical; settings: mean ± S.D.
T20 construct: purchased Millipore (now Eurofins) KinaseProfiler / IC50 Profiler
Procedure: as §1

LKB1 (h) = molecular target: T21, LKB1 (h) (Homo sapiens, UniProt Q15831); assay: Kinase profile, LKB1; assay type: biochemical; settings: mean ± S.D.
T21 construct: purchased Millipore (now Eurofins) KinaseProfiler / IC50 Profiler
Procedure: as §1

CDK3/cyclin E (h) = molecular target: T22, CDK3/cyclin E (h) (Homo sapiens, UniProt Q00526); assay: Kinase profile, CDK3/cyclin E; assay type: biochemical; settings: mean ± S.D.
T22 construct: purchased Millipore (now Eurofins) KinaseProfiler / IC50 Profiler
Procedure: as §1

CDK5/p25 (h) = molecular target: T23, CDK5/p25 (h) (Homo sapiens, UniProt Q00535); assay: Kinase profile, CDK5/p25; assay type: biochemical; settings: mean ± S.D.
T23 construct: purchased Millipore (now Eurofins) KinaseProfiler / IC50 Profiler
Procedure: as §1

FGFR1 = molecular target: T24, FGFR1 (Homo sapiens, UniProt P11362); assay: In vitro kinase assay, FGFR1; assay type: biochemical
T24 construct: purchased Millipore UK Ltd., Dundee, UK (now Eurofins Scientific); KinaseProfiler / IC50 Profiler service
T24 sequence (P11362 22-822): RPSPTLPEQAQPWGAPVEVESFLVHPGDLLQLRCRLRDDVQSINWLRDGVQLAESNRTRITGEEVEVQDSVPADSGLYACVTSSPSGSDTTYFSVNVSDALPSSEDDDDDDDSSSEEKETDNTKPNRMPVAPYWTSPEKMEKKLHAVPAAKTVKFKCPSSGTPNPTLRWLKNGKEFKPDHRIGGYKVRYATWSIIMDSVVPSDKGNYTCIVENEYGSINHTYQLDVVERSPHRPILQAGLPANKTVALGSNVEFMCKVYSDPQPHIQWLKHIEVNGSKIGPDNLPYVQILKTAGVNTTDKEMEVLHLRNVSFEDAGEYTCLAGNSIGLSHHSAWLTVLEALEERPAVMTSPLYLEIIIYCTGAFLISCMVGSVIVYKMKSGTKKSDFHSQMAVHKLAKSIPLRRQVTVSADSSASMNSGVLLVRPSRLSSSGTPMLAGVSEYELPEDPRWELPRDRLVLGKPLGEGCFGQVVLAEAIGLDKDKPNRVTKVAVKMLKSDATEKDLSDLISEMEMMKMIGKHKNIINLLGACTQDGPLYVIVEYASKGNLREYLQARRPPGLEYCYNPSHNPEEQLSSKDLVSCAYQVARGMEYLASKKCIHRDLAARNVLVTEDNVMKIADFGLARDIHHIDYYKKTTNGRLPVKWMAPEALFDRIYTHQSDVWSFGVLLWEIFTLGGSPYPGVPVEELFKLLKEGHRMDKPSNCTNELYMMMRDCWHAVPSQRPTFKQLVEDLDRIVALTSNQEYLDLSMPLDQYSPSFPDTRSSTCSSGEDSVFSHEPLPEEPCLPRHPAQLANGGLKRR
Procedure: as §1

T1 sequence (P22607 23-806): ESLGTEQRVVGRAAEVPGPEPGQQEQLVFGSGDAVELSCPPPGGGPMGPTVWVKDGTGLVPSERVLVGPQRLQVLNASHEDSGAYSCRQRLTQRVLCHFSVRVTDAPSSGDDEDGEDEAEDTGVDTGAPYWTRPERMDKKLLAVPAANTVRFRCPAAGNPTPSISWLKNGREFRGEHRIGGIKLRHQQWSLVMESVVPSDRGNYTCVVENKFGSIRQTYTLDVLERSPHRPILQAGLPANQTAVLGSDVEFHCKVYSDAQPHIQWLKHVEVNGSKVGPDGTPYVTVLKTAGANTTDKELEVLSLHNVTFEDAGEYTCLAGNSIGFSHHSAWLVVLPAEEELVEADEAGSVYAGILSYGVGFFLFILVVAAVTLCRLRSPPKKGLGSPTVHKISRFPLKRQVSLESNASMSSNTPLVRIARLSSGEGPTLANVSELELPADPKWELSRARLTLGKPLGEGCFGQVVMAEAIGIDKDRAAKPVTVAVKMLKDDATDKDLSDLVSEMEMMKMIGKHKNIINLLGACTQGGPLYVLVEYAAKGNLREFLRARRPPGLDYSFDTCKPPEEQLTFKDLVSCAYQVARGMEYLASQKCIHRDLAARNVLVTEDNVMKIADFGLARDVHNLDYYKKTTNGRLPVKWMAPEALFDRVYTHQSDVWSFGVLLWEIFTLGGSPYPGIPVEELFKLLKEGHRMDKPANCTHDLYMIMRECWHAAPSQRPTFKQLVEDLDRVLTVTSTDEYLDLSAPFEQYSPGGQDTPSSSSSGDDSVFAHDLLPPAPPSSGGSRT

Cc1ccc(Nc2nccc(N(C)c3ccc4[nH]ccc4c3)n2)cc1S(N)(=O)=O [MKP101] was tested, and the inhibition at 1 µM (FGFR3; 1 μM, mean ± S.D., read-out: % inhibition at 1 μM, FGFR3 (h)) was 96%, the IC50 (FGFR3; in vitro kinase assay) was 43 nM and the inhibition at 1 µM (PKCδ (h)) was 0%. The “Effect on VEGF-induced increase in migration” value (HUVECs) was “significantly inhibited”, the inhibition at 1 µM (CaMKIIβ (h)) was 17 ± 4% and the inhibition at 1 µM (CDK5/p35 (h)) was 38 ± 3%. For the same molecule, the “Inhibition of EGFR phosphorylation” value (phosphorylated EGFR) was “reduced the levels of phosphorylated EGFR”, the inhibition at 1 µM (CaMKIIγ (h)) was 37 ± 2% and the inhibition at 1 µM (p70S6K (h)) was 20 ± 3%. For the same molecule, the inhibition at 1 µM (PKCμ (h)) was 7 ± 1%, the inhibition at 1 µM (Abl (h)) was 100 ± 2% and the inhibition at 1 µM (CaMKIIδ (h)) was 41 ± 3%. It also gave an inhibition at 1 µM (MAPK2 (h)) of 0%, an inhibition at 1 µM (PKCι (h)) of 5 ± 6% and an inhibition at 1 µM (Lyn (h)) of 98 ± 1%. For the same molecule, the inhibition at 1 µM (CDK2/cyclin A (h)) was 12 ± 8%, the inhibition at 1 µM (GSK3β (h)) was 18 ± 4% and the inhibition at 1 µM (FLT3 (h)) was 91 ± 1%. The inhibition at 1 µM (PKCζ (h)) was 5 ± 4%, the inhibition at 1 µM (EGFR; 1 μM, mean ± S.D., read-out: % inhibition at 1 μM, EGFR(h)) was 96 ± 2% and the IC50 (EGFR; in vitro kinase assay, mean values) was 43 nM. For the same molecule, the inhibition at 1 µM (PKCη (h)) was 0%, the inhibition at 1 µM (ROCK-II (h)) was 4 ± 1% and the inhibition at 1 µM (MAPK1 (h)) was 4 ± 5%. It also gave an inhibition at 1 µM (CDK2/cyclin E (h)) of 8 ± 1%, an inhibition at 1 µM (LKB1 (h)) of 0% and an inhibition at 1 µM (CDK3/cyclin E (h)) of 6 ± 2%. For the same molecule, the inhibition at 1 µM (CDK5/p25 (h)) was 47 ± 2%, the inhibition at 1 µM (FGFR1; 1 μM, mean ± S.D., read-out: % inhibition at 1 μM, FGFR1 (h)) was 98 ± 1% and the IC50 (FGFR1; in vitro kinase assay) was 28 nM.
